In patent publication US20170119835A1, “METHOD OF MAKING AN ADJUNCT TO […] OF RIBOSOMAL FUNCTIONS IN TUMOR CELLS AND PREVENT BODY WEIGHT LOSS DURING CYCLOP[…] THERAPY” (priority 2009, published 2017):

System: S-180 cells
From the text: Healthy adult male mice of BALB/c strain (hereinafter, “animals”) weighing between 18 to 22 g were selected randomly. The animals were divided in to six groups. Each animal was identified by color marking. Each cage was identified by a label according to the group. The label contained the name of experiment, number of mice in that cage, dose (mg/kg) and date of initiation and completion of experiment. The groups received treatments for a period of 15 days. On Day 16, samples of blood were withdrawn, under anesthesia, from orbital sinus of the animals. The samples were collected in tubes containing Heparin as an anticoagulant.
Group I was treated as vehicle control and received vehicle (Corn oil) orally, in equal volume as in treatment groups. Group II received only tumor cells (1×10^6 cells) intra-peritoneally. Group III received tumor cells (1×10^6 cells) and cyclophosphamide (150 mg/kg body weight) intra-peritoneally. Group IV and Group V received Tumor cells and BV-3115 at 100 mg/kg body weight and 250 mg/kg body weight respectively.
A group of male mice approximately 7-8 weeks old and weighing between 18-22 gm were used for this study. Animal room temperature & relative humidity were maintained at 22-30 C. and 30-70% respectively. All mice were given free access to purified water (Purified with Aquaguard) & standard pelleted laboratory animal feed. After acclimation period of 7 days, each animal was weighed and then the animals were randomly selected according to body weights and allocated to the different treatment groups, so that mean body weights of groups were not statistically different before starting the experiment. Tumor implantation with S-180 cells 1×10^6 cells I.P. to all groups except group I (sham control no tumor, no drug).

[1] = all treatment groups, Day 16 blood

In the case of O=P1(N(CCCl)CCCl)NCCCO1 (stereo not drawn) [cyclophosphamide], the mortality (BALB/c mice, 15 days, cyclophosphamide 150 mg/kg i.p., BV-3115 100 and 250 mg/kg, combination with BV-3115 100 mg/kg) was “No mortality”, the “body weight compared to Group I” value (Group III, cyclophosphamide 150 mg/kg i.p., P<0.05) was “normal weight gain till Day 10, thereafter sudden decrease in weights” and the “body weight on day 15” value (S-180 cells 1×106 I.P., vs sham control / tumor group) was “reduced the body weight alarmingly lower than sham control”. The “platelets compared with Group I (vehicle control)” value (all treatment groups) was “comparable to Group I”, the “body weight compared to Group II (tumor cells only)” value (all treatment groups (III, IV, V and VI)) was “significant decrease in body weight” and the RBC count [1] was “increased in varying degrees”. For the same compound, the hemoglobin content [1] was “increased in varying degrees”, the “white blood cells compared with Group II” value (group III (cyclophosphamide) and VI (combination), P<0.05) was “statistically significant decrease in white blood cells” and the clinical signs (other groups: cyclophosphamide 150 mg/kg, BV-3115 100 mg/kg, combination) was “No clinically abnormal signs”.
